Where two headings read alike, the source gives them in different places.
Columns and labels:
[1] = biological target: full-length human PRMT6 (Flag- and His-tagged) (Homo sapiens, UniProt Q96LA8); assay: PRMT6 Biochemical Assay (3H-SAM Flashplate, peptide substrate)
Description: (§1) General Materials. S-adenosylmethionine (SAM), S-adenosylhomocysteine (SAH), bicine, Tween20, dimethylsulfoxide (DMSO), bovine skin gelatin (BSG), sodium butyrate and Tris(2-carboxyethyl)phosphine hydrochloride solution (TCEP) were purchased from Sigma-Aldrich at the highest level of purity possible. ^3H-SAM was purchase from American Radiolabeled Chemicals with a specific activity of 80 Ci/mmol. 384-well streptavidin Flashplates were purchased from PerkinElmer.
Substrates. Peptide representative of human histone H4 residues 36-50 was synthesized with an N-terminal linker-affinity tag motif and a C-terminal amide cap by 21st Century Biochemicals. The peptide was purified by high-performance liquid chromatography (HPLC) to greater than 95% purity and confirmed by liquid chromatography mass spectrometry (LC-MS). The sequence was Biot-Ahx-[…]-amide and contained a monomethylated lysine at position 44 (SEQ ID NO.:5).
Molecular Biology: Full-length human PRMT6 (NM_018137.2) transcript clone was amplified from an HEK 293 cDNA library, incorporating a flanking 5′ sequence encoding a FLAG tag ([…]) (SEQ ID NO.:6) fused directly to Ser 2 of PRMT6 and a 3′ sequence encoding a hexa His sequence (HHHHHH) (SEQ ID NO.:17) fused directly to Asp 375. The amplified gene was subcloned into pFastBacMam (Viva Biotech).
Protein Expression. Recombinant baculovirus were generated according to Bac-to-Bac kit instructions (Life Technologies). […] Infections were carried out at 37° C. for 48 hours, harvested by centrifugation, and stored at −80° C. for purification.
Protein Purification. […] Column was washed with 20 mM imidazole in the same buffer and Flag-PRMT6-His was eluted with 150 mM imidazole. Pooled fractions were dialysed against buffer N^1-A and further purified by anti-flag M2 affinity chromatography. Flag-PRMT6-His was eluted with 200 ug/ml FLAG peptide in the same buffer. Pooled fractions were dialysed in 20 mM Tris, 150 mM NaCl, 10% glycerol and 5 mM β-mercaptoethanol, pH 7.8. The purity of recovered protein was 95%.
General Procedure for PRMT6 Enzyme Assays on Peptide Substrates. The assays were all performed in a buffer consisting of 20 mM Bicine (pH=7.6), 1 mM TCEP, 0.005% BSG, and 0.002% Tween 20, prepared on the day of use. Compounds in 100% DMSO (1 ul) were spotted into a polypropylene 384-well V-bottom plates (Greiner) using a Platemate Plus outfitted with a 384-channel head (Thermo Scientific). DMSO (1 ul) was added to Columns 11, 12, 23, 24, rows A-H for the maximum signal control and 1 ul of SAH, a known product and inhibitor of PRMT6, was added to columns 11, 12, 23, 24, rows I-P for the minimum signal control. A cocktail (40 ul) containing the PRMT6 enzyme was added by Multidrop Combi (Thermo-Fisher). The compounds were allowed to incubate with PRMT6 for 30 min at room temperature, then a cocktail (10 ul) containing SAM and peptide was added to initiate the reaction (final volume=51 ul). The final concentrations of the components were as follows: PRMT6 was 1 nM, ^3H-SAM was 200 nM, non-radiolabeled SAM was 250 nM, peptide was 75 nM, SAH in the minimum signal control wells was 1 mM, and the DMSO concentration was 2%. The assays were stopped by the addition of non-radiolabeled SAM (10 ul) to a final concentration of 400 uM, which dilutes the ^3H-SAM to a level where its incorporation into the peptide substrate is no longer detectable. 50 ul of the reaction in the 384-well polypropylene plate was then transferred to a 384-well Flashplate and the biotinylated peptides were allowed to bind to the streptavidin surface for at least 1 hour before being washed once with 0.1% Tween20 in a Biotek ELx405 plate washer. The plates were then read in a PerkinElmer TopCount plate reader to measure the quantity of ^3H-labeled peptide bound to the Flashplate surface, measured as disintegrations per minute (dpm) or alternatively, referred to as counts per minute (cpm). […]

[2] = biological target: full-length human PRMT1 isoform 1 (GST-tagged) (Homo sapiens, UniProt Q99873); assay: PRMT1 Biochemical Assay (3H-SAM Flashplate, peptide substrate)
Sequence of full-length human PRMT1 isoform 1 (GST-tagged) (Q99873 with tags, fused parts or gaps): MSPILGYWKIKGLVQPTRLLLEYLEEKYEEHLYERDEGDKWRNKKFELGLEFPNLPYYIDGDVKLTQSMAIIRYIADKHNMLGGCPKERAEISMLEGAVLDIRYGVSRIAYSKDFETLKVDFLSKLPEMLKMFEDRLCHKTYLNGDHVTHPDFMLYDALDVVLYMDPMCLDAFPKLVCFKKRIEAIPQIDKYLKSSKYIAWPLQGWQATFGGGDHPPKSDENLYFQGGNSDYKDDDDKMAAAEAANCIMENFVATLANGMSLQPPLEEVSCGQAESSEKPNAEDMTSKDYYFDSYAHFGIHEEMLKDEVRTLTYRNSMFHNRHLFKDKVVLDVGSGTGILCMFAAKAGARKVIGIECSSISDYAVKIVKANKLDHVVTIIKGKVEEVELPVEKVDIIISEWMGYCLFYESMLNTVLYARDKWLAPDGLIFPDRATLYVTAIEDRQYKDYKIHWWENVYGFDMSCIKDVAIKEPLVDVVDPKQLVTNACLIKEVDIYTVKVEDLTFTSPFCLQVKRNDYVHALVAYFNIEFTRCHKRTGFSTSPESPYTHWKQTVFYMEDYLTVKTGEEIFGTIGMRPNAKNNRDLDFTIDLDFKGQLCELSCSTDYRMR
Description: as §1, with “(BSG),” for “(BSG), sodium butyrate”
Protein Expression. Recombinant baculovirus were generated according to Bac-to-Bac kit instructions (Life Technologies). […] Infections were carried out at 27° C. for 48 hours, harvested by centrifugation, and stored at −80° C. for purification.
Protein Purification. […] GST-tagged PRMT1 was eluted with 50 mM Tris, 2 mM glutathione, pH 7.8, dialysed in buffer A and concentrated to 1 mg/mL.
General Procedure for PRMT1 Enzyme Assays on Peptide Substrates. The assays were all performed in a buffer consisting of 20 mM Bicine (pH=7.6), 1 mM TCEP, 0.005% BSG, and 0.002% Tween 20, prepared on the day of use. […] DMSO (1 ul) was added to Columns 11, 12, 23, 24, rows A-H for the maximum signal control and 1 ul of SAH, a known product and inhibitor of PRMT1, was added to columns 11, 12, 23, 24, rows I-P for the minimum signal control. A cocktail (40 ul) containing the PRMT1 enzyme was added by Multidrop Combi (Thermo-Fisher). The compounds were allowed to incubate with PRMT1 for 30 min at room temperature, then a cocktail (10 ul) containing SAM and peptide was added to initiate the reaction (final volume=51 ul). […] The assays were stopped by the addition of non-radiolabeled SAM (10 ul) to a final concentration of 300 uM, which dilutes the ^3H-SAM to a level where its incorporation into the peptide substrate is no longer detectable. 50 ul of the reaction in the 384-well polypropylene plate was then transferred to a 384-well Flashplate and the biotinylated peptides were allowed to bind to the streptavidin surface for at least 1 hour before being washed once with 0.1% Tween20 in a Biotek ELx405 plate washer. The plates were then read in a PerkinElmer TopCount plate reader to measure the quantity of ^3H-labeled peptide bound to the Flashplate surface, measured as disintegrations per minute (dpm) or alternatively, referred to as counts per minute (cpm).
Where dpm=disintegrations per minute, cmpd=signal in assay well, and min and max are the respective minimum and maximum signal controls.
Where top and bottom are the normally allowed to float, but may be fixed at 100 or 0 respectively in a 3-parameter fit. The Hill Coefficient normally allowed to float but may also be fixed at 1 in a 3-parameter fit. Y is the % inhibition and X is the compound concentration.

[3] = read-out: Biochemical IC50 PRMT6
[4] = single experiment or average of multiple experiments, read-out: Biochemical IC50 PRMT6
[5] = single experiment or average of multiple experiments

Sequence of full-length human PRMT6 (Flag- and His-tagged) (Q96LA8 with tags, fused parts or gaps): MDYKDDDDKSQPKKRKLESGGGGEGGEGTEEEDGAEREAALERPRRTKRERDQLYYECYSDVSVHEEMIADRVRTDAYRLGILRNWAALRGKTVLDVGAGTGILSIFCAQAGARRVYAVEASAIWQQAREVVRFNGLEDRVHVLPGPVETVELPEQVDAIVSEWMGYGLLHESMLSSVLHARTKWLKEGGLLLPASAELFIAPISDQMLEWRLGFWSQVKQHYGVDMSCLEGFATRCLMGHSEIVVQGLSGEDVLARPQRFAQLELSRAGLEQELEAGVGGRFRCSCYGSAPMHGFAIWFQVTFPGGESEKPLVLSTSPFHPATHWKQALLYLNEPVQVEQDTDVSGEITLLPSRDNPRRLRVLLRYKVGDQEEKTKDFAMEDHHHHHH

SMILES	IC50 [1, 3] [nM]	IC50 [1, 4] [nM]	IC50 [2] [nM]	IC50 [2, 5] [nM]	IC50 ([1]; Biochemical IC50 PRMT6) [nM]	IC50 ([1]; Biochemical IC50 PRMT6, single experiment or average of multiple experiments) [nM]
CNCCN(C)Cc1c[nH]nc1[C@H]1CC[C@@H](O)C2(CCCCC2)C1 (single isomer, unassigned) [Compound 183]	< 100	87.7	< 100	13.5	–	–
CNCCN(C)Cc1c[nH]nc1[C@H]1CC[C@@]2(CCN(Cc3ccc(F)cc3)C2=O)CC1 [Compound 125]	< 100	13.1	< 100	5.3	–	–
CNCCN(C)Cc1c[nH]nc1[C@H]1CC[C@H](OCCOc2ccccc2)CC1 [Compound 187]	101 to 1000	261	101 to 1000	193	–	–
CNCCN(C)Cc1c[nH]nc1[C@H]1CC[C@H](OCCOc2ccc(OCCOC)cc2)CC1 [Compound 116]	–	–	< 100	9.8	< 100	18.7
CNCCN(C)Cc1c[nH]nc1C1CCC2(CCNC2=O)CC1 (stereo not shown) [Compound 176]	< 100	36.4	< 100	10.2	–	–
CNCCN(C)Cc1c[nH]nc1C1CCC2(CC1)CC(=O)N(C)C2 (stereo not shown) [Compound 157]	< 100	47.9	< 100	18.5	–	–
CNCCN(C)Cc1c[nH]nc1C1CC(COC)CC(COC)C1 (stereo not shown) [Compound 138]	1010 to 3000	1210	101 to 1000	349	–	–
CNCCN(C)Cc1c[nH]nc1[C@H]1CC[C@@]2(CCN(Cc3ccc(OCCOC)cc3)C2=O)CC1 [Compound 120]	< 100	42.8	< 100	10.1	–	–
CNCCN(C)Cc1c[nH]nc1C1CCC2(CC1)CN(C)C(=O)N2C (stereo not shown) [Compound 172]	< 100	45.8	< 100	23	–	–
CNCCN(C)Cc1c[nH]nc1C1CC(OC(C)C)CC(OC(C)C)C1 (stereo not shown) [Compound 118]	> 10000	> 10000	1010 to 3000	2160	–	–
CNCCN(C)Cc1c[nH]nc1[C@H]1CC[C@@]2(CCN(CC(C)C)C2=O)CC1 [Compound 129]	< 100	29.7	< 100	23.6	–	–
CNCCN(C)Cc1c[nH]nc1[C@H]1CC[C@H](C(C)C)CC1 [Compound 180]	< 100	14.7	< 100	4.9	–	–
CNCCN(C)Cc1c[nH]nc1[C@H]1CC[C@]2(CCN(Cc3ccccc3)C2=O)CC1 [Compound 128]	< 100	13.1	< 100	5.2	–	–

Further lines, results first:

IC50 [1, 3] [nM]	IC50 [1, 4] [nM]	IC50 [2] [nM]	IC50 [2, 5] [nM]	IC50 ([1]; Biochemical IC50 PRMT6) [nM]	IC50 ([1]; Biochemical IC50 PRMT6, single experiment or average of multiple experiments) [nM]	SMILES
< 100	65.7	< 100	17.3	–	–	CNCCN(C)Cc1c[nH]nc1C1CCC2(CC1)CCN(CCC(C)C)C2=O (stereo not shown) [Compound 163]
< 100	70.8	< 100	19.7	–	–	CNCCN(C)Cc1c[nH]nc1C1CCC2(CC1)CCN(CC(C)C)C2=O (stereo not shown) [Compound 164]
< 100	35.2	< 100	14.2	–	–	CNCCN(C)Cc1c[nH]nc1C1CCC2(CC1)CCN(C)C2=O (stereo not shown) [Compound 152]
< 100	22.3	< 100	16.5	–	–	CNCCN(C)Cc1c[nH]nc1[C@H]1CC[C@@]2(CCN(Cc3ccccc3)C2=O)CC1 [Compound 127]
< 100	57.8	< 100	17.2	–	–	CNCCN(C)Cc1c[nH]nc1[C@H]1CC[C@@]2(CC1)CC(=O)N(CC(C)C)C2 [Compound 156]
> 10000	> 10000	101 to 1000	421	–	–	CNCCN(C)Cc1c[nH]nc1C1CC(OCC(C)C)CC(OCC(C)C)C1 (stereo not shown) [Compound 122]
< 100	18	< 100	8.8	–	–	CNCCN(C)Cc1c[nH]nc1[C@H]1CC[C@]2(CCN(Cc3ccc(F)cc3)C2=O)CC1 [Compound 123]
< 100	47.7	< 100	36.9	–	–	CNCCN(C)Cc1c[nH]nc1C1CCC2(CC1)CN(C)C(=O)N2CC(C)C (stereo not shown) [Compound 151]
< 100	7.2	< 100	4.5	–	–	CNCCN(C)Cc1c[nH]nc1C1CCC(C)CC1 (stereo not shown) [Compound 149]
< 100	66.9	< 100	57.2	–	–	CNCCN(C)Cc1c[nH]nc1C1CCCC(COCCC(O)CO)C1 (stereo not shown) [Compound 113]
< 100	53.8	< 100	19.7	–	–	CCOC1CC(OCC)CC2(CCC(c3n[nH]cc3CN(C)CCNC)CC2)C1 (stereo not shown) [Compound 159]
< 100	31.5	< 100	11	–	–	CNCCN(C)Cc1c[nH]nc1[C@H]1CC[C@H](COC)CC1 [Compound 167]
< 100	32.7	< 100	18.3	–	–	CNCCN(C)Cc1c[nH]nc1C1CCC2(CC1)CNC(=O)C2 (stereo not shown) [Compound 147]
< 100	24	< 100	15.6	–	–	CNCCN(C)Cc1c[nH]nc1[C@H]1CC[C@@H](OC2CCCCC2)CC1 [Compound 140]
< 100	23	< 100	10.7	–	–	CNCCN(C)Cc1c[nH]nc1[C@H]1CC[C@@]2(CCOC2)CC1 [Compound 141]

Reference: patent publication US11512053B2, “Arginine methyltransferase inhibitors and uses thereof” (priority 2013, dated 2022)
